# Experimental data as given in patent US11730743B2, “Protection of cells from degeneration and treatment of geographic atrophy” (University of Kentucky Research Foundation, priority 2012, dated 2023).
# Key:
# wild-type mice = test: Alu RNA- or pAlu-induced RPE degeneration after subretinal injection (fundus photographs, ZO-1 flat mounts); format: in vivo; conditions: subretinal Alu RNA, test agent intravitreous
# Experimental: Subretinal injection and imaging. Subretinal injections (1 μL) in mice were performed using a Pico-Injector (PLI-100, Harvard Apparatus). In vivo transfection of plasmids was achieved using 10% Neuroporter (Genlantis). Fundus imaging was performed on a TRC-50 IX camera (Topcon) linked to a digital imaging system (Sony). Immunolabeling of RPE flat mounts was performed using antibodies against human zonula occludens-1 (Invitrogen).
# Fundus photography. Retinal photographs of dilated mouse eyes were taken with a TRC-50 IX camera (Topcon) linked to a digital imaging system (Sony).
# Immunolabeling. Human eyes fixed in 2-4% paraformaldehyde were prepared as eyecups, cryoprotected in 30% sucrose, embedded in optimal cutting temperature compound (Tissue-Tek OCT; Sakura Finetek), and cryosectioned into 10 μm sections. Depigmentation was achieved using 0.25% potassium permanganate and 0.1% oxalic acid. Immunohistochemical staining was performed with the rabbit antibody against NLRP3 (1:100, Sigma Aldrich) or rabbit antibody against Caspase-1 (prediluted, AbCam). Isotype IgG was substituted for the primary antibody to assess the specificity of the staining. Bound antibody was detected with biotin-conjugated secondary antibodies, followed by incubation with ABC reagent and visualized by Vector Blue (Vector Laboratories). Levamisole (Vector Laboratories) was used to block endogenous alkaline phosphatase activity. Slides were washed in PBS, counterstained with neutral red (Fisher Scientific), rinsed with deionized water, air dried, and then mounted in Vectamount (Vector Laboratories). Fluorescent labeling of human tissue was performed with the rabbit antibody against PYCARD (1:50, Clone N-15, Santa Cruz Biotechnology). Immunolabeling was visualized by fluorescently conjugated anti-rabbit secondary antibody (Invitrogen). Tissue autofluorescence was quenched by incubating the sections in 0.3% Sudan black (Fisher Scientific). Sections were mounted in Vectashield with DAPI (Vector Laboratories). Mouse RPE/choroid flat mounts were fixed with 4% paraformaldehyde or 100% methanol, stained with rabbit antibodies against human zonula occludens-1 (1:100, Invitrogen) and visualized with Alexa594 (Invitrogen). All images were obtained using the Leica SP-5 or Zeiss Axio Observer Z1 microscopes.
# Subretinal injection. Subretinal injections (1 μL) in mice were performed using a Pico-Injector (PLI-100, Harvard Apparatus). In vivo transfection of plasmids coding for two different Alu sequences (pAlu) or empty control vector (pNull) (Bennett et al., 2008; Kaneko et al., 2011; Shaikh et al., 1997) was achieved using 10% Neuroporter (Genlantis). AAV1-BEST1-Cre (Alexander and Hauswirth, 2008) or AAV1-BEST1-GFP were injected at […] pfu/mL and in vitro transcribed Alu RNA was injected at 0.3 mg/mL.
# Drug treatments. siRNAs formulated in siRNA buffer (20 mM KCL, 0.2 mM MgCl2 in HEPES buffer at pH 7.5; Dharmacon) or phosphate buffered saline (PBS; Sigma-Aldrich); the TLR4 antagonist Ultra Pure Rhodobacter sphaeroides LPS (LPS-RS, InvivoGen), a peptide inhibitor of MyD88 homodimerization IMG-2005 (IMGENEX), control inhibitor (IMGENEX), recombinant IL-18 (Medical & Biological Laboratories), neutralizing rat antibodies against mouse IL-1β (IMGENEX), neutralizing rat antibodies against mouse IL-18 (Medical & Biological Laboratories), isotype control IgGs (R&D Systems or eBioscience as appropriate), Caspase-1 inhibitor Z-WEHD-FMK (R&D Systems), Caspase-3 inhibitor Z-DEVD-FMK (R&D Systems), Caspase control inhibitor Z-FA-FMK (R&D Systems), (2R,4R)-APDC (Enzo Life Sciences), Glipizide (Sigma-Aldrich), Glyburide (Sigma-Aldrich), and P2X7 receptor antagonist A438079 (Tocris Bioscience) were dissolved in phosphate buffered saline (PBS; Sigma-Aldrich) or dimethyl sulfoxide (DMSO; Sigma-Aldrich), and injected into the vitreous humor in a total volume of 1 μL with a 33-gauge Exmire microsyringe (Ito Corporation). […]
# IRAK1/4 = test: Western blot of phosphorylated IRAK1/4 in human RPE cells; format: cell-based; conditions: normalized to Vinculin
# Experimental: Protein abundance and activity. Protein abundance was assessed by Western blot analysis using primary antibodies recognizing Caspase-1 (1:500; Invitrogen), pIRAK1 (1:500; Thermo Scientific), pIRAK4 (1:500, Abbomax, Inc), PYCARD (1:200, Santa Cruz Biotechnology), NLRP3 (1:500, Enzo Life Sciences) and Vinculin (1:1,000; Sigma-Aldrich). Caspase-1 activity was visualized using Caspalux1 E1D2 (OncoImmunin) reagent according to the manufacturer's instructions.
# Western blotting. Tissues or cells were homogenized in lysis buffer (10 mM Tris base, pH 7.4, 150 mM NaCl, 1 mM EDTA, 1 mM EGTA, 1% Triton X-100, 0.5% NP-40, protease and phosphatase inhibitor cocktail (Roche)). Protein concentrations were determined using a Bradford assay kit (Bio-Rad) with bovine serum albumin as a standard. Proteins (40-100 μg) were run on NuPAGE Bis-Tris gels (Invitrogen) and transferred to Immun-Blot PVDF membranes (Bio-Rad). Cells were scraped in hot Laemmli buffer (62.5 mM Tris base, pH 6.8, 2% SDS, 5% 2-Mercaptoethanol, 10% Glycerol, 0.01% Bromophenol Blue). Samples were boiled and run on 4-20% NuPAGE Tris-Glycine gels (Invitrogen). […] Protein loading was assessed by immunoblotting using an anti-Vinculin antibody (1:1,000; Sigma-Aldrich). […]
substance,measurement,setting,value
MyD88 inhibitory peptide: peptide inhibitor of MyD88 homodimerization IMG-2005 (IMGENEX),Alu RNA-induced RPE degeneration,wild-type mice,prevented
same,Alu RNA-induced phosphorylation of IRAK1/4,IRAK1/4,reduced
